In US20150105471A1, “PARACETAMOL FOR PARENTERAL ADMINISTRATION” (Fresenius Kabi Deutschland GmbH, priority 2009, published 2015):

Columns and labels:
[1] = electrical conductivity of aqueous paracetamol solutions; type: physicochemical
Protocol: The composition according to the invention, preferably an infusion solution, has an electrical conductivity of at most 200 μS cm^−1. The measurement of the electrical conductivity of aqueous solutions is known to the person skilled in the art and suitable measuring apparatuses are obtainable commercially. The electrical conductivity is preferably measured at room temperature. […]
Aqueous solutions of paracetamol and further ingredients were prepared. The electrical conductivity of the solutions was measured and the storage stability of paracetamol was determined by means of the formation of degradation products (for the formation of the dimer cf., for example, D. W. Pottert et al, J Biol Chem, 1985, […], 12174-80; W. Clegg et al., Acta Crystallographica, 1998, C54, 1881-2).

[2] = buffer properties of cysteine; type: physicochemical; conditions: pH 5.5 to 7
Source text: In a preferred embodiment, the composition according to the invention, preferably an infusion solution, contains cysteine, if appropriate additionally to mannitol.

Compound	electrical conductivity ([1]; 10 g of paracetamol in 1000 ml of water)	electrical conductivity ([1]; 10 g of paracetamol in 1000 ml of water plus 100 mg of NaCl (0.01% by weight of NaCl))	buffer properties [2]
CC(=O)Nc1ccc(O)cc1 [paracetamol]	about 4 μS/cm	about 200 μS/cm	–
N[C@@H](CS)C(=O)O [cysteine]	–	–	no buffer properties at all
